According to BigSolDB 2.1:

O=C(N[C@H](Cc1ccccc1)C(=O)O)OCC1c2ccccc2-c2ccccc21
solubility (mole fraction)
Conditions	283.15 K	288.15 K	293.15 K	298.15 K	303.15 K	308.15 K	313.15 K	318.15 K	323.15 K
in 2-butanone	0.00646	0.00728	0.00803	0.00895	0.00993	0.0112	0.0133	0.015	0.017
in acetone	0.00728	0.00759	0.00837	0.00931	0.0109	0.0128	0.0146	0.0164	0.0193
in acetonitrile	0.000619	0.00066	0.000723	0.00084	0.000952	0.00117	0.00138	0.00168	0.00203
in ethanol	0.00161	0.00173	0.00187	0.00205	0.0024	0.00278	0.00324	0.004	0.00515
in ethyl acetate	0.00272	0.003	0.00342	0.00379	0.00443	0.00504	0.00571	0.00682	0.00793
in isopropanol	0.000943	0.00103	0.00114	0.00126	0.00155	0.00208	0.00263	0.00311	0.00375
in methanol	0.00189	0.00192	0.00199	0.00212	0.00243	0.00285	0.00331	0.0039	0.00513
in methyl acetate	0.00327	0.00358	0.00408	0.00458	0.00537	0.00623	0.0072	0.00884	0.0105
in n-butanol	0.00121	0.00136	0.00156	0.00181	0.0022	0.00261	0.00322	0.00389	0.00511
in n-butyl acetate	0.00209	0.00227	0.00243	0.00278	0.00305	0.00352	0.00409	0.0046	0.00536
in n-propanol	0.00161	0.00168	0.00178	0.0019	0.00217	0.00252	0.00316	0.00365	0.00456
in n-propyl acetate	0.0023	0.00244	0.00275	0.00318	0.00354	0.00405	0.00467	0.00534	0.00613
